Data reported in BigSolDB 2.1.

COc1c(C)c2c(c(O)c1C/C=C(\C)CCC(=O)OCCN1CCOCC1)C(=O)OC2
solubility (mole fraction)
Conditions	in DMSO	in ethanol	in ethyl acetate	in ethylene glycol	in isopropanol	in n-butanol	in propylene glycol	in transcutol	in water
298.2 K	0.023	0.00613	0.0689	0.000715	0.00852	0.0108	0.00105	0.0393	1.75e-06
303.2 K	0.0272	0.00676	0.0744	0.000858	0.00934	0.0119	0.00126	0.0421	2.29e-06
308.2 K	0.0328	0.00749	0.0802	0.00103	0.0102	0.0132	0.00147	0.0452	2.87e-06
313.2 K	0.0388	0.00833	0.0856	0.0012	0.0111	0.0144	0.00168	0.0486	3.49e-06
318.2 K	0.0439	0.00906	0.0928	0.0014	0.0121	0.0159	0.00193	0.0522	4.16e-06

Conditions	solubility (mole fraction)
in PEG-400, 298.2 K	0.0271
in PEG-400, 303.2 K	0.0312
in PEG-400, 308.2 K	0.0355
in PEG-400, 313.2 K	0.0399
in PEG-400, 318.2 K	0.0449
